Several values for one entry are separate records, joined by “and”; a condition that tells them apart may be missing. Identical values can stand only once.
How the values were obtained:
Type in all cases: in vivo
Oryza sativa = assay: Crop compatibility post-emergence, greenhouse pot test; settings: application rate 80 g/ha
Method in brief: (§1)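 Crops grown in sandy loam in greenhouse pots; treated post-emergence at one-leaf stage, 2–3 weeks after sowing, spraying WP or EC formulations as aqueous suspension/emulsion with 0.5% additive at 600 L/ha. Damage scored visually after about 3 weeks against untreated controls (0% = like control, 100% = dead).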

Glycine max = assay: as above
Method in brief: as §1

Zea mays = assay: as above
Method in brief: as §1

Triticum aestivum = assay: as above; settings: application rate 20 g/ha
Method in brief: as §1

Matricaria inodora [1] = assay: Herbicidal action pre-emergence, greenhouse pot test; settings: application rate 320 g/ha
Setaria viridis [2] = assay: Herbicidal action post-emergence, greenhouse pot test; settings: application rate 80 g/ha
Method in brief: (§2)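 Visual efficacy scoring (0% like untreated, 100% plant death) about 3 weeks post-treatment. Application, at ≤80 g/ha, was a post-emergence spray of wettable-powder or emulsion-concentrate formulations in water with 0.5% additive at 600 L/ha onto one-leaf-stage plants grown 2–3 weeks from seed in sandy loam.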

Amaranthus retroflexus [3] = assay: as above; settings: application rate 80 g/ha
Method in brief: as §2

Avena fatua [4] = assay: as above; settings: application rate 80 g/ha
Method in brief: as §2

Echinochloa crus-galli [5] = assay: as above; settings: application rate 80 g/ha
Method in brief: as §2

Polygonum convolvulus [6] = assay: as above
Method in brief: as §2

Stellaria media [7] = assay: as above; settings: application rate 80 g/ha
Method in brief: as §2

Viola tricolor [8] = assay: as above; settings: application rate 80 g/ha
Method in brief: as §2

Abutilon theophrasti [9] = assay: as above; settings: application rate 80 g/ha
Method in brief: as §2

Hordeum murinum [10] = assay: as above; settings: application rate 80 g/ha
Method in brief: as §2

Veronica persica [11] = assay: as above; settings: application rate 80 g/ha
Method in brief: as §2

Matricaria inodora [12] = assay: as above
Method in brief: as §2

Pharbitis purpurea [13] = assay: as above; settings: application rate 80 g/ha
Method in brief: as §2

Alopecurus myosuroides [14] = assay: Herbicidal action pre-emergence, greenhouse pot test; settings: application rate 320 g/ha
Method in brief: (§3)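 Pre-emergence soil-surface treatment at application rates of 320 g/ha or below, using WP or EC formulations in water (600 L/ha) plus 0.5% additive over freshly sown, soil-covered seeds. After roughly 3 weeks' greenhouse growth, damage rated visually against untreated plants, 0% meaning like control.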

Setaria viridis [15] = assay: as above; settings: application rate 320 g/ha
Method in brief: as §3

Amaranthus retroflexus [16] = assay: as above; settings: application rate 80 g/ha
Method in brief: as §3

Avena fatua [17] = assay: as above; settings: application rate 320 g/ha
Method in brief: as §3

Echinochloa crus-galli [18] = assay: as above; settings: application rate 320 g/ha
Method in brief: as §3

Polygonum convolvulus [19] = assay: as above; settings: application rate 320 g/ha
Method in brief: as §3

Stellaria media [20] = assay: as above; settings: application rate 320 g/ha
Method in brief: as §3

Viola tricolor [21] = assay: as above; settings: application rate 320 g/ha
Method in brief: as §3

Lolium rigidum [22] = assay: as above; settings: application rate 320 g/ha
Method in brief: as §3

Abutilon theophrasti [23] = assay: as above; settings: application rate 320 g/ha
Method in brief: as §3

Cyperus esculentus = assay: as above; settings: application rate 320 g/ha
Method in brief: as §3

Hordeum murinum [24] = assay: as above; settings: application rate 320 g/ha
Method in brief: as §3

Veronica persica [25] = assay: as above; settings: application rate 320 g/ha
Method in brief: as §3

Pharbitis purpurea [26] = assay: as above; settings: application rate 320 g/ha
Method in brief: as §3

Alopecurus myosuroides [27] = assay: Herbicidal action post-emergence, greenhouse pot test; settings: application rate 80 g/ha, scored visually after about 3 weeks vs untreated controls
Method in brief: as §2

Lolium rigidum [28] = assay: as above; settings: application rate 80 g/ha
Method in brief: as §2

Oryza sativa (Efficacy in %) (Oryza sativa) [%] | Triticum aestivum (Efficacy in %) (Triticum aestivum) [%] | Structure (SMILES) | Matricaria inodora (Efficacy in %) (Matricaria inodora [1]) [%] | Setaria viridis (Efficacy in %) (Setaria viridis [2]) [%] | Amaranthus retroflexus (Efficacy in %) (Amaranthus retroflexus [3]) [%] | Echinochloa crus-galli (Efficacy in %) (Echinochloa crus-galli [5]) [%] | Stellaria media (Efficacy in %) (Stellaria media [7]) [%] | Viola tricolor (Efficacy in %) (Viola tricolor [8]) [%] | Abutilon theophrasti (Efficacy in %) (Abutilon theophrasti [9]) [%] | Veronica persica (Efficacy in %) (Veronica persica [11]) [%] | Pharbitis purpurea (Efficacy in %) (Pharbitis purpurea [13]) [%] | Alopecurus myosuroides (Efficacy in %) (Alopecurus myosuroides [14]) [%] | Setaria viridis (Efficacy in %) (Setaria viridis [15]) [%] | Amaranthus retroflexus (Efficacy in %) (Amaranthus retroflexus [16]) [%] | Echinochloa crus-galli (Efficacy in %) (Echinochloa crus-galli [18]) [%] | Polygonum convolvulus (Efficacy in %) (Polygonum convolvulus [19]) [%] | Stellaria media (Efficacy in %) (Stellaria media [20]) [%] | Lolium rigidum (Efficacy in %) (Lolium rigidum [22]) [%] | Abutilon theophrasti (Efficacy in %) (Abutilon theophrasti [23]) [%] | Veronica persica (Efficacy in %) (Veronica persica [25]) [%] | other results
0 | 10 | CC(Sc1cc(-n2c(=O)cc(C(F)(F)F)n(C)c2=O)c(F)cc1Cl)C(=O)OC1CNC(=O)C1 (stereo not drawn) [I.1-254] | 100 | 100 | 100 | 100 | 90 | 100 | 100 | 90 | 100 | 100 | 100 | 100 | 100 | 100 | 100 | 100 | 100 | 100 | Glycine max (Efficacy in %) (Glycine max; application rate 20 g/ha): 20%; Zea mays (Efficacy in %) (Zea mays; application rate 80 g/ha): 0%; Avena fatua (Efficacy in %) (Avena fatua [4]): 80%; Polygonum convolvulus (Efficacy in %) (Polygonum convolvulus [6]; application rate 80 g/ha): 100%; Hordeum murinum (Efficacy in %) (Hordeum murinum [10]): 100% and 80%; Matricaria inodora (Efficacy in %) (Matricaria inodora [12]; application rate 80 g/ha): 100%; Avena fatua (Efficacy in %) (Avena fatua [17]): 90%; Viola tricolor (Efficacy in %) (Viola tricolor [21]): 100%; Cyperus esculentus (Efficacy in %) (Cyperus esculentus): 80%; Hordeum murinum (Efficacy in %) (Hordeum murinum [24]): 90%; Pharbitis purpurea (Efficacy in %) (Pharbitis purpurea [26]): 100%
0 | 10 | CC(Sc1cc(-n2c(=O)cc(C(F)(F)F)n(C)c2=O)c(F)cc1Cl)C(=O)OCC1CCC(=O)N1 (stereo not drawn) [I.1-255] | 100 | 100 | 100 | 100 | 100 | 100 | 100 | 100 | 100 | 90 | 100 | 100 | 100 | 100 | 100 | 100 | 100 | 100 | Glycine max (Efficacy in %) (Glycine max; application rate 20 g/ha): 20%; Zea mays (Efficacy in %) (Zea mays; application rate 80 g/ha): 10%; Alopecurus myosuroides (Efficacy in %) (Alopecurus myosuroides [27]): 90%; Avena fatua (Efficacy in %) (Avena fatua [4]): 80%; Polygonum convolvulus (Efficacy in %) (Polygonum convolvulus [6]; application rate 80 g/ha): 100%; Lolium rigidum (Efficacy in %) (Lolium rigidum [28]): 100%; Matricaria inodora (Efficacy in %) (Matricaria inodora [12]; application rate 80 g/ha): 100%; Avena fatua (Efficacy in %) (Avena fatua [17]): 90%; Viola tricolor (Efficacy in %) (Viola tricolor [21]): 100%; Hordeum murinum (Efficacy in %) (Hordeum murinum [24]): 100%; Pharbitis purpurea (Efficacy in %) (Pharbitis purpurea [26]): 100%
20 | 20 | COC(=O)CCOC(=O)C(C)(C)Sc1cc(-n2c(=O)cc(C(F)(F)F)n(C)c2=O)c(F)cc1Cl [I.46-2] | 100 | 100 | 100 | 100 | 80 | 80 | 100 | 80 | 100 | 90 | 100 | 100 | 100 | 100 | 100 | 100 | 100 | 100 | Glycine max (Efficacy in %) (Glycine max; application rate 5 g/ha): 20%; Zea mays (Efficacy in %) (Zea mays; application rate 20 g/ha): 20%; Polygonum convolvulus (Efficacy in %) (Polygonum convolvulus [6]; application rate 20 g/ha): 100%; Matricaria inodora (Efficacy in %) (Matricaria inodora [12]; application rate 20 g/ha): 100%; Pharbitis purpurea (Efficacy in %) (Pharbitis purpurea [26]): 100%
